This is an account of results in paper PMC5378566, “Design, synthesis and evaluation in an LPS rodent model of neuroinflammation of a novel ^18F-labelled PET tracer targeting P2X7” (EJNMMI Research, 2017).

For series [1], the target named is T1, human P2X7 (Homo sapiens, UniProt Q99572).
T1 construct: expressed in transfected cells
T1 sequence (Q99572 1-595): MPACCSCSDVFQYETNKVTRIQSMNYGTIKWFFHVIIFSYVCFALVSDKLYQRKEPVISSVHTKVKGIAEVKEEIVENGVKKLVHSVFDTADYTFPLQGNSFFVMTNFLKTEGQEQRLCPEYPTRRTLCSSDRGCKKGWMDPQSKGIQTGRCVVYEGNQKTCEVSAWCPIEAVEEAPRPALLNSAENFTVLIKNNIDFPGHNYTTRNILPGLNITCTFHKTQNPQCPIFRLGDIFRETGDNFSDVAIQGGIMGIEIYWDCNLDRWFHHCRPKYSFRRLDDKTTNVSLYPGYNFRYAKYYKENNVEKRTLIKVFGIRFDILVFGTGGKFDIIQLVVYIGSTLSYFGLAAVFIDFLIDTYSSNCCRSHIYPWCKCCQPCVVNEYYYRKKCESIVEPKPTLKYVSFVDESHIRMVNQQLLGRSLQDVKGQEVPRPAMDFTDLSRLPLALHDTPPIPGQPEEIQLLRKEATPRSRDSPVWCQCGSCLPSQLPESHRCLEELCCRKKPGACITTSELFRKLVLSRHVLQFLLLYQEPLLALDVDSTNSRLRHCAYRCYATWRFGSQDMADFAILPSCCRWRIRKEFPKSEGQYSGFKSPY
On the set-up: method as in PMID 11181928. The following applies: YoPro dye uptake, P2X7-HEK293; cited from earlier work.

Series [2] concerns the target T2, rat P2X7 (Rattus norvegicus, UniProt Q64663).
T2 construct: expressed in transfected cells
T2 sequence (Q64663 1-595): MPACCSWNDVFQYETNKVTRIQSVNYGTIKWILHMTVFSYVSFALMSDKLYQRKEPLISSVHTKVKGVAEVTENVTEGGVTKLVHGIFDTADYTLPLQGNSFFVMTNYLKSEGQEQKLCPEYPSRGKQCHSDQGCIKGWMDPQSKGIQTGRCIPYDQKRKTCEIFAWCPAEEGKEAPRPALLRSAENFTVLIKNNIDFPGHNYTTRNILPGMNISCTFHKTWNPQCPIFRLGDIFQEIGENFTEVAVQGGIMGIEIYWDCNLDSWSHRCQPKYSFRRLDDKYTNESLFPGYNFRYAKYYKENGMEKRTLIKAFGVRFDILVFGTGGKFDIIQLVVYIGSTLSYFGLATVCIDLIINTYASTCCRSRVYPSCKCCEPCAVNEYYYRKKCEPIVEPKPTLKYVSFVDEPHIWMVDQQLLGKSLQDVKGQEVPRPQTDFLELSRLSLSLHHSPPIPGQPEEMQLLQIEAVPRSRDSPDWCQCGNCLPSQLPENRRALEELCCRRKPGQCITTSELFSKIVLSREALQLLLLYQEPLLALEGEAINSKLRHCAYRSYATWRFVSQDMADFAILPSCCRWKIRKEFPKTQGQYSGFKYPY
Also noted: method as in PMID 11181928. The note with it: YoPro dye uptake, P2X7-HEK293; cited from earlier work.

Series [3] has as its target T3, mouse P2X7 (Mus musculus, UniProt Q9Z1M0).
T3 sequence (Q9Z1M0 1-595): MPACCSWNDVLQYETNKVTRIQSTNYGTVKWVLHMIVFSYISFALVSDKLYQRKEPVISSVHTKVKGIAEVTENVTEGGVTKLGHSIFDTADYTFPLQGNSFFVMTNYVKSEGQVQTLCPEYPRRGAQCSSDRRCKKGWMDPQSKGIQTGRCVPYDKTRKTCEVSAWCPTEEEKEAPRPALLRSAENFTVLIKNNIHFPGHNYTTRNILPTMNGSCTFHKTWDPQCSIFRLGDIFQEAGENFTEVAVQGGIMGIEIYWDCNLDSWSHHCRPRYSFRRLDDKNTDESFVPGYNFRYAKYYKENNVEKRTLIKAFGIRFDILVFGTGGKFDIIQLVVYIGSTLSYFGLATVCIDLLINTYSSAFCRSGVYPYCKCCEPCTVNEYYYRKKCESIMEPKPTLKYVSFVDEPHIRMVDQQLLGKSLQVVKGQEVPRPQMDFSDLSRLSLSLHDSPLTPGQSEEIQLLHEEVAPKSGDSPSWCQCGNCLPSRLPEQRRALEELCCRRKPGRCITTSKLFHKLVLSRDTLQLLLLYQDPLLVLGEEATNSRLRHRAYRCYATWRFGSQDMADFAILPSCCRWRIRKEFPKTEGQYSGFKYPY
On the set-up: method as in PMID 11181928. The following applies: YoPro dye uptake, P2X7-HEK293; cited from earlier work.

The target of series [4] is T1, human P2X7. In words: Calcium influx (Fura-2/AM) inhibition assay, BzATP-activated. The note with it: Human isoform. The format is cell-based.
The target in series [5] is T3, mouse P2X7. In words: Calcium influx (Fura-2/AM) inhibition assay, BzATP-activated, B16 cells. The note with it: Mouse isoform; for pKi: Cheng–Prusoff; for Ki: Cheng–Prusoff from pIC50 assuming competitive inhibition, BzATP 200 μM; for pIC50: P2X7-B16, [BzATP] 200 μM. It is filed as cell-based.
Series [6] concerns the target T3, mouse P2X7. On the set-up: method as in PMID 19558545. The note with it: Mouse isoform, literature value from similar assay format; cited from earlier work.
The target in series [7] is T2, rat P2X7. In words: Calcium influx (Fura-2/AM) inhibition assay, BzATP-activated. It is filed as cell-based. The following applies: Rat isoform.
Series [8] in a line: Stability test in 0.05% DMSO by radio/UV-HPLC. The following applies: 37 °C, 2 h. The format is physicochemical. The method, then:
The reaction vessel was heated at 160 °C for 15 min, cooled to 50 °C and the solvent was concentrated at 50 °C under a stream of nitrogen for 7–10 min. Next, the crude mixture was diluted in 2 mL water ensuring <15% acetonitrile was present and injected in an HPLC semi-prep C18 column to provide isolation of the pure product in >99% RCP and >300 GBq/μmol molar radioactivity. The product was diluted to 30–50 mL in water and passed through a light C18 Short Sep-Pak SPE cartridge (WAT023501) for concentration in 200–500 μL ethanol. The resulting product was obtained in high purity and 4.0% overall RCY in 3 h and 30 min from start of synthesis. Purity tests were performed with HPLC method B (Table 1).
Supp. […] UV_A: UV chromatogram; ChA: Channel A (Radiochromatogram); Cps: counts per second.

A further series relates to Sprague–Dawley rats. In words: PET/CT imaging and biodistribution in LPS-treated and control rats. The format is in vivo, rat. The procedure: Male Sprague–Dawley rats of 240–270 g were bought from Charles River Laboratories International, Inc., and used within 90 days. The animals were housed with a week of acclimatisation before procedures were done under pathogen-free conditions in a temperature- and humidity-controlled environment and given access to food and water ad libitum. All experiments were carried out in the Rayne Institute, St. Thomas’ Hospital, King’s College London, between 2015 and 2016 and according to the Animals Act 1986 and with the approval of the King’s College research ethics committee.
Twenty-four hours prior to scanning, all rats were pre-treated by an intraperitoneal injection of 0.5 mg/kg LPS from Escherichia coli (0111:B4 L2630, Sigma Aldrich) at 0.5 mg/mL or with 1 mL/kg sterile saline solution and weighed before the start of the PET imaging procedure. Then, the saline-dissolved reformulated radiotracer was injected under isoflurane anaesthesia in 0.2–5 MBq, corresponding to an administered dose of 0.5–16 ng/kg, and >300 GBq/μmol molar radioactivity via tail vein cannulation, followed by a 0.15 mL saline flush. Details on anaesthesia and PET/CT acquisition and analysis are reported in Additional file 1. Immediately after imaging, the animals were culled by terminal anaesthesia and cervical dislocation and dissected. Organs and body fluids were collected for gamma counting (LKB Wallac 1282) and biodistribution analysis.
Data are expressed as mean ± standard error mean (SEM) from three independent replicates, unless otherwise indicated. Statistical analysis of the %ID/g variation in the PET scans and biodistributions were performed with GraphPad Prism 5.0 (San Diego, USA) as a parametric two-way ANOVA test with Bonferroni post-test, while the mean longitudinal percentage injected dose per gram (%ID/g) and the post-LPS treatment weight variation were analysed with a Student’s t test. The asterisk indicates P < 0.01; **P < 0.005; ***P < 0.001. Where unspecified, no significance was found.
PET/CT scans were acquired with Nuclide^TM within the energy window of 400-600 keV, coincidence detection ratio 1-5 and voxel resolution of 0.30 x 0.30 x 0.30 mm^3. CT scanning was performed immediately before or after the PET scans with X-ray energy of 45 KVp, 360 projection and 0.25 x 0.25 x 0.21 mm^3 voxel size. The datasets were resolved by dynamic fine reconstructions with coincidence detection ratio 1-5 and decay correction to the time of injection. Binning was performed in incremental time units of 5 to 30 min size. All reconstructed datasets were analysed with VivoQuant 1.21 (InviCRO, LLC, Boston, USA). ROI activity quantification was corrected for background noise. Uptake was expressed as percent injected dose per gram of tissue (%ID/g), as calculated with reference to the injected activity dose at the time of injection and the ROI size in mm^3. The blood ROI was sampled from the coronary artery. All data are presented as mean ± SEM unless otherwise stated.
Immediately after imaging, the animals were culled by terminal anaesthesia and cervical dislocation. The animals were dissected and organs and body fluids were collected for gamma counting (LKB Wallac 1282) and weighed. An ^18F counts-to-becquerel standard curve was made so as to enable conversion between the two units. The radiotracer uptake in each organ was expressed as %ID/g, where %ID was the percent ratio of the measured organ radioactivity to the total administered dose. The latter was defined as the MBq injected to the animals, decay corrected to the start of counting.

A word on the pEC50: it is the EC50 on a negative log10 scale, so that one unit is a factor of ten. On to “2′(3′)-O-(4-Benzoylbenzoyl)adenosine 5′-triphosphate triethylammonium salt [BzATP]”, for which the pEC50 at human P2X7 [1] was 6.8 ± 0.14; at rat P2X7 [2] it was 6.3 ± 0.13; on mouse P2X7 [3] it was 4.7 ± 0.07.

One may read the Ki as a dissociation constant, usually derived from enzyme kinetics or from competition with a known ligand. Usually IC50 stands for the concentration that inhibits the measured activity by half. The pKi is the negative decadic logarithm of the Ki, by convention in mol/L. One may read the pIC50 as the negative decadic logarithm of the IC50, by convention in mol/L. Consider `COc1ccc(CC(=O)NC(NC(=NC#N)Nc2cccc3ncccc23)C(C)(C)C)cc1OC` (stereo not shown) [A-740003, N-(1-{[(Cyanoimino)(5-quinolinylamino)methyl]amino}-2,2-dimethylpropyl)-2-(3,4-dimethoxyphenyl)acetamide, reference compound], for which, on human P2X7 [4] (Cheng–Prusoff), the Ki is 0.000105 µM. The IC50 at human P2X7 [4] (P2X7-HEK293, [BzATP] 100 μM) was 0.0661 µM. In addition, at mouse P2X7 [5], the pKi came to 7.01, the Ki turned out to be 0.0972 µM and the pIC50 stood at 5.97. In addition, at mouse P2X7 [6], the “Lit. pIC50” value is 6.57 [34].

As to `N#CN=C(NCc1ccc(F)cc1)Nc1cccc2ncccc12` [EFB, 2-cyano-1-(4-fluorobenzyl)-3-(quinolin-5-yl)guanidine], the Ki at rat P2X7 [7] (Cheng–Prusoff from pIC50 assuming competitive inhibition, BzATP 100 μM) is 0.0361 µM. For the same compound, the IC50 on rat P2X7 [7] (P2X7-HEK293, [BzATP] 100 μM) was 7.24 µM. On mouse P2X7 [5], the pKi was 6.26, the Ki was found to be 0.547 µM and the pIC50 is 5.22.

Take `N#C/N=C(/NCc1ccc([18F])cc1)Nc1cccc2ncccc12` [[^18F]EFB, 2-cyano-1-(4-[^18F]fluorobenzyl)-3-(quinolin-5-yl)guanidine]: in [8], the Stability entry is on record as “no radioactive by-product formation”. Besides, in the series with Sprague–Dawley rats (90 min biodistribution), the “blood concentration of the tracer, LPS vs control” value is on record as “substantially unvaried” and the “tracer uptake in upper digestive organs (stomach, pancreas), LPS vs control” value is reported as “increased, albeit non-significant”. In the series on Sprague–Dawley rats (PET, rats, i.v.), the “CNS uptake, spinal cord” value was 0.05–0.1 %ID/g; the “CNS uptake, whole brain, cortex, olfactory bulb, cerebellum and basal ganglia” value is 0.02–0.07 %ID/g. Also, in the series with Sprague–Dawley rats (PET, rats, i.v., blood ROI), the “blood concentration (longitudinal uptake profile)” value is reported as 0.05–0.1 %ID/g. In addition, the “brain uptake (visual PET image assessment)” value in the series on Sprague–Dawley rats (control and 0.5 mg/kg LPS-pre-treated rats) is “low brain uptake”. Besides, in the series on Sprague–Dawley rats (rats), the “removal of the radioactivity (excretion route)” value was “predominantly via the urinary route”.
